Earlier results on two compounds are cited in patent US6002023A, “2-debenzoyl-2-acyl taxol derivatives and method for making same” (Virginia Tech Intellectural Properties, Inc., priority 1997, dated 1999).

The subject of series [1] is non-small cell lung cancer. As to conditions: preliminary studies; cited from earlier work.
Series [2] deals with ovarian cancer and breast cancer. Conditions: cited from earlier work.
The conditions of series [3]: in some assays; cited from earlier work.

Regarding `CC(=O)O[C@H]1C(=O)[C@@]2(C)[C@H]([C@H](OC(=O)c3ccccc3)[C@]3(O)C[C@H](OC(=O)[C@H](O)[C@@H](NC(=O)c4ccccc4)c4ccccc4)C(C)=C1C3(C)C)[C@]1(OC(C)=O)CO[C@@H]1C[C@@H]2O` [Taxol], the clinical activity entry was “good activity” in series [1] and “excellent clinical activity” in series [2]. With `CC(=O)O[C@@]12CO[C@@H]1C[C@H](O)[C@@]1(C)C(=O)[C@H](O)C3=C(C)[C@@H](OC(=O)[C@H](O)[C@@H](NC(=O)OC(C)(C)C)c4ccccc4)C[C@@](O)([C@@H](OC(=O)c4ccccc4)[C@H]21)C3(C)C` [Taxotere], the “activity relative to taxol” value in series [3] is recorded as “approximately twice as active as taxol”.
